Assays:
Ph-ALL3.1 cells = assay: Release of elutriated G1 phase cells, 3H-thymidine incorporation and FACS; format: cell-based, human; set-up: dose or concentration left out as unconfirmed; conditions: G1 phase fraction released into granaticin A
Experimental: FIG. 2. Elutriation profile of PhALL3.1: Centrifugal elutriation was used to synchronize the recently established Philadelphia chromosome positive acute lymphoblastic leukemia cell line (PhALL3.1). An asynchronous culture (4 liters) was pelleted, resuspended in a small volume (20 ml), and loaded into the elutriation rotor as outlined by the manufacturer (Beckman). After equilibration and washing, cell samples were eluted from the rotor based on size with the smaller cells exiting the rotor first. Ten fractions (250 ml) were taken across the gradient and standard FACS analysis performed on 10 ml of each fraction looking at DNA content. G1, S, and G2 phase cell populations are indicated in the asynchronous profile. This method allows for isolation of phase specific cell populations.
FIG. 3. […] Ph-ALL3.1 cells were subjected to standard centrifugal elutriation conditions and the G1 phase fraction, as determined by FACS analysis (Time Zero), was released into granaticin A ([…]) or vehicle control (DMSO) for the indicated times. Cell samples post-release into granaticin A or vehicle control (DMSO) were pulsed for 2 hours with ^3H-thymidine and samples were collected, washed, and acid precipitable counts were measured by scintillation counting. X-axis is time post-release into compound or control (in hours) and y-axis is counts per minute (CPM). […]

PhALL3.1 = format: in vivo
Description: FIGS. 20A-20C. Granaticin B Inhibits Ph-ALL3. 1 growth in vivo: Given the rapid intravenous clearance of granaticin A by the liver, granaticin B was used in a continuous infusion experiment with the PhALL3.1 animal model. Diffusion pumps containing granaticin B were surgically implanted in the flanks of 5 cohorts of mice on day +3 after injection of 5 million cells via the tail veins, and the drug (or control—C-DMSO) at the indicated concentration was allowed to diffuse for seven days before pump removal. The mice were imaged on day 12 (FIGS. 20A-20B) and tumor volume remaining was calculated (FIG. 20C).

Structure (SMILES) | 3H-thymidine incorporation (Ph-ALL3.1 cells) | cell cycle profile (Ph-ALL3.1 cells) | tumor reduction (PhALL3.1; highest dose, diffusion pump for seven days from day +3, imaged on day 12) | organ toxicity at necropsy (PhALL3.1; mouse, in vivo)
CC1OC2CC(O)C1(O)c1c(O)c3c(c(O)c12)C(=O)C1=C(C3=O)[C@H](C)O[C@H]2CC(=O)O[C@@H]12 (stereo partly shown) [Granaticin A, granaticin A] | stop incorporating ^3H-thymidine | G1 phase arrest | – | –
CC1OC2CC(O[C@H]3CC[C@H](O)[C@H](C)O3)C1(O)c1c(O)c3c(c(O)c12)C(=O)C1=C(C3=O)[C@H](C)O[C@H]2CC(=O)O[C@@H]12 (stereo partly shown) [Granaticin B, granaticin B] | – | – | 95% | without obvious organ toxicity

— patent US20210283099A1, “CDC7 KINASE INHIBITORS AND USES THEREOF” (SLOAN-KETTERING INSTITUTE FOR CANCER RESEARCH, priority 2010, published 2021)
